Data reported in US20260373119A1, “NOVEL COMPOUND, AND COMPOSITION FOR PREVENTING OR TREATING HER2-POSITIVE CANCER, COMPRISING SAME” (EWHA UNIVERSITY - INDUSTRY COLLABORATION FOUNDATION, priority 2022, published 2026).

Legend:
MED23-IRF7 PPI = target: T1, MED23-IRF7 PPI (Homo sapiens, UniProt Q9ULK4); experiment: immunoprecipitation, MED23-IRF7 PPI; type: cell-based
T1 construct: co-immunoprecipitation of IRF7, probably endogenous
Description: NCI-N87 cells from a gastric cancer cell line were seeded in a 100 mm cell culture dish and cultured until they reached 60-70% confluence. The cultured cells were transfected with p3Xflag-myc-CMV26-empty or p3Xflag-myc-CMV26-MED23^WT plasmids using Lipofectamine® 2000 (Invitrogen, USA). After transfection, YK1 (5 μM) was added 12 hours post-transfection, and the cells were cultured for 12 hours. A total of 750 μg of cell lysate was incubated with 20 μL of FLAG-agarose bead slurry (Sigma Aldrich, USA) on a rotator at 4 °C for 4 hours. The sample was centrifuged at 12,000 rpm for 1 minute to precipitate the beads. After removing the supernatant, the remaining beads were washed three times with 200 μL of lysis buffer (RIPA).
After removing the final supernatant, the beads were eluted by boiling with 2× sample buffer at 98 °C for 5 minutes. The immunoprecipitated proteins were loaded, separated by SDS-PAGE, and analyzed by Western blotting.

c-RAF = c-RAF (Homo sapiens, UniProt P04049); experiment: kinase profiling, c-RAF; type: biochemical; conditions: read-out: In vitro kinase inhibitory activity (%)
Sequence of c-RAF (P04049 whole entry): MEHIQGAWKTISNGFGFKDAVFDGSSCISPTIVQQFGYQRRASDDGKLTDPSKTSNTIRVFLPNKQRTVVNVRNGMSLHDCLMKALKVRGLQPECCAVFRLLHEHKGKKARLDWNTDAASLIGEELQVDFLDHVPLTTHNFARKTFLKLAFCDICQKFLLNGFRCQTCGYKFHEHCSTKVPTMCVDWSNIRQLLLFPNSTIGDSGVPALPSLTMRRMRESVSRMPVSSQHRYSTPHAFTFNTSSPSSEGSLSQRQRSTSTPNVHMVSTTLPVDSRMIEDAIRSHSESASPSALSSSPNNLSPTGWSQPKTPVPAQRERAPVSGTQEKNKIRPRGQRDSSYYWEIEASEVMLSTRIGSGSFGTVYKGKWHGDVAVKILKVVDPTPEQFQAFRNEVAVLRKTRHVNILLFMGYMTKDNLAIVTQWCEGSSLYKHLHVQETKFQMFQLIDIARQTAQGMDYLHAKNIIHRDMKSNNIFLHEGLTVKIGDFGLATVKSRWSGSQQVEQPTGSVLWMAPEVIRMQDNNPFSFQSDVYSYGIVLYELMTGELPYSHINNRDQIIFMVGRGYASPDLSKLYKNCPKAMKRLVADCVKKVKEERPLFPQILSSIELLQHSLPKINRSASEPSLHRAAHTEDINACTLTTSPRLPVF
Description: Kinase inhibitory activity of the candidate compound at 10 μM and 25 μM was assessed using Eurofins Kinase Profiling Services. Inhibitory effects on c-RAF, EGFR, ErbB2, ErbB4, and PI3 kinase were analyzed according to the Kinase Profiler Service Assay protocol.

[1] = target: T2, ELF3-MED23 protein-protein interaction (Homo sapiens, UniProt Q9ULK4); experiment: SEAP reporter assay, ELF3-MED23 PPI inhibition (293T kidney cells); type: cell-based
T2 construct: followed by the addition of either the candidate compound or MED23 protein constructs; endogenous in cells; host or cells: 293T kidney cells (MED23 endogenous; GAL4-ELF3 transfected)
T2 sequence (Q9ULK4 1-1368): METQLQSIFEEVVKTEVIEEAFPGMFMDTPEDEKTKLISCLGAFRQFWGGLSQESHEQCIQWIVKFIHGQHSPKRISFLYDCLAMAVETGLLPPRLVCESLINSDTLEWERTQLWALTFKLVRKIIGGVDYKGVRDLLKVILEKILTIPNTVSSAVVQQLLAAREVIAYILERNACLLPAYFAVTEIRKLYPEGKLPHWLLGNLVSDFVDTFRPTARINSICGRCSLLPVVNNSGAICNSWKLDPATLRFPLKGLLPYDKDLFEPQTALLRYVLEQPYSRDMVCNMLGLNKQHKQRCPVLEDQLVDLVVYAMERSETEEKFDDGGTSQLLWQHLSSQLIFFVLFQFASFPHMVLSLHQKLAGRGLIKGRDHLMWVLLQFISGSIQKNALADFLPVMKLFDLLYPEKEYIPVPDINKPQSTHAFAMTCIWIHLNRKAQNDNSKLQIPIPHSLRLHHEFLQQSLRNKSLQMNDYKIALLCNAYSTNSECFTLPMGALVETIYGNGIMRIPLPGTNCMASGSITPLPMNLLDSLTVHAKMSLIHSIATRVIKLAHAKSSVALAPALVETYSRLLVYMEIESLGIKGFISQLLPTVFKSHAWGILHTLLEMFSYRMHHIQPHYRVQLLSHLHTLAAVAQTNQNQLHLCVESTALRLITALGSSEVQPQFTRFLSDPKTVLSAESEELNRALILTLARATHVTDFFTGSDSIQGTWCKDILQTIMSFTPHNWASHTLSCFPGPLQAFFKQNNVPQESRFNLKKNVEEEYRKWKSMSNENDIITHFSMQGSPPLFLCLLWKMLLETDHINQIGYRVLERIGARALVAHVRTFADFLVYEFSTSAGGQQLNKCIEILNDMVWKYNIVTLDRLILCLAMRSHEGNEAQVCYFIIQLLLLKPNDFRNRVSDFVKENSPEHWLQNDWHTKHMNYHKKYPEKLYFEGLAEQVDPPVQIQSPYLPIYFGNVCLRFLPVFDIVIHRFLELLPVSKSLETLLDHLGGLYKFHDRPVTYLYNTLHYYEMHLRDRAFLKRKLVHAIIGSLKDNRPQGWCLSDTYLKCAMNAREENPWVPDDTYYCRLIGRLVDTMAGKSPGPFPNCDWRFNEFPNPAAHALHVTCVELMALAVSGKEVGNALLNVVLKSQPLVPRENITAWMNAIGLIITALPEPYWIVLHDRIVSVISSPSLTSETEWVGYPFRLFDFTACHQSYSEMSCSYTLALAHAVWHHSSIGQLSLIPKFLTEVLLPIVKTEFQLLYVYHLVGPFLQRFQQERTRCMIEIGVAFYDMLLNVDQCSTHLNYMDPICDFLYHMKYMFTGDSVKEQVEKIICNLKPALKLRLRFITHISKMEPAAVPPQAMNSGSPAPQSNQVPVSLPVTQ
Description: To verify whether the D400 and H449 residues play a critical role in the ELF3-MED23 protein-protein interaction, a SEAP assay was performed. Specifically, 293T kidney cells were seeded at a density of 5×10^3 cells/well in a 96-well microplate (SPL, Korea) and cultured overnight. Subsequently, the cells were co-transfected with 100 ng of each plasmid using transfection-optimized medium (Welgene, Korea). The plasmids used included the SEAP reporter gene (pG5IL2SX) and GAL4-ELF3 expression vector (pBJ GAL4-ELF3). For transfection, the cells were incubated with WelFectQ (Welgene, Korea) for 3 hours, followed by the addition of either the candidate compound or MED23 protein constructs (pcDNA MED23^WT, K397A, D400A, H449G, and D400A/H449G). The treated cells were incubated for 12 hours. The candidate compound was added in an incubator at 5% CO2 and 37 °C, and the plate was incubated at 65 °C for 3 hours to inactivate all enzymes except SEAP (Secreted Alkaline Phosphatase). A mixture comprising 100 μL of substrate solution prepared with 1.19 μL of 0.1 M 4-methylumbelliferyl phosphate (Sigma, USA), 25 μL of inactivated medium, and 75 μL of double-distilled water was added, followed by the addition of 98.81 μL of 2 M diethanolamine (pH 10, Sigma, USA). The plate was incubated overnight at 37 °C. Subsequently, the fluorescence intensity was measured using a fluorometer (SPECTRAmax […], Molecular Devices, USA) at an excitation wavelength of 360 nm and an emission wavelength of 440 nm.
To further elaborate on the above findings, small molecule compounds that could affect the ELF3-MED23 PPI were designed and synthesized. Specifically, non-essential side chains were removed from gefitnib, and compounds were designed to include both hydrogen bond donors and acceptors for the D400 and H449 residues of MED23, respectively (FIG. 4A). Specifically, chalcones and pyrazolines were selected as core scaffolds, and 25 compounds (11 chalcones and 14 pyrazoline-based compounds) were prepared. The ELF3-MED23 PPI inhibitory activity of all prepared compounds was measured using a SEAP assay.

`CC(=O)N1N=C(c2cccc(O)c2)CC1c1ccc(Cl)cc1` (centres unmarked) [Compound 15, 1-[5-(4-Chlorophenyl)-3-(3-hydroxyphenyl)-4,5-dihydropyrazol-1-yl]-ethanone] was tested, and the “PPI inhibitory effect on MED23-IRF7” value (MED23-IRF7 PPI) was “did not inhibit these PPIs”, the inhibition at 10 µM (c-RAF; 10 μM) was 3% and the inhibition at 25 µM (c-RAF; 25 μM) was 10%. For the same compound, the IC50 ([1]; ELF3-MED23 PPI) was 1180 ± 340 nM and the inhibition at 10 µM ([1]; HEK-293T, 10 μM) was 95%.
